Source: PMC8253220, “Molecular design, synthesis and in vitro biological evaluation of thienopyrimidine–hydroxamic acids as chimeric kinase HDAC inhibitors: a challenging approach to combat cancer” (Journal of Enzyme Inhibition and Medicinal Chemistry, 2021)

Tests used:
HDAC6 = target: T1, HDAC6 (Homo sapiens, UniProt Q9UBN7); assay: In vitro HDAC6 inhibitory assay (BPS Bioscience, fluorogenic); type: biochemical; details: 10 µM
T1 construct: purchased BPS Bioscience 50006
T1 sequence (Q9UBN7 1-1215): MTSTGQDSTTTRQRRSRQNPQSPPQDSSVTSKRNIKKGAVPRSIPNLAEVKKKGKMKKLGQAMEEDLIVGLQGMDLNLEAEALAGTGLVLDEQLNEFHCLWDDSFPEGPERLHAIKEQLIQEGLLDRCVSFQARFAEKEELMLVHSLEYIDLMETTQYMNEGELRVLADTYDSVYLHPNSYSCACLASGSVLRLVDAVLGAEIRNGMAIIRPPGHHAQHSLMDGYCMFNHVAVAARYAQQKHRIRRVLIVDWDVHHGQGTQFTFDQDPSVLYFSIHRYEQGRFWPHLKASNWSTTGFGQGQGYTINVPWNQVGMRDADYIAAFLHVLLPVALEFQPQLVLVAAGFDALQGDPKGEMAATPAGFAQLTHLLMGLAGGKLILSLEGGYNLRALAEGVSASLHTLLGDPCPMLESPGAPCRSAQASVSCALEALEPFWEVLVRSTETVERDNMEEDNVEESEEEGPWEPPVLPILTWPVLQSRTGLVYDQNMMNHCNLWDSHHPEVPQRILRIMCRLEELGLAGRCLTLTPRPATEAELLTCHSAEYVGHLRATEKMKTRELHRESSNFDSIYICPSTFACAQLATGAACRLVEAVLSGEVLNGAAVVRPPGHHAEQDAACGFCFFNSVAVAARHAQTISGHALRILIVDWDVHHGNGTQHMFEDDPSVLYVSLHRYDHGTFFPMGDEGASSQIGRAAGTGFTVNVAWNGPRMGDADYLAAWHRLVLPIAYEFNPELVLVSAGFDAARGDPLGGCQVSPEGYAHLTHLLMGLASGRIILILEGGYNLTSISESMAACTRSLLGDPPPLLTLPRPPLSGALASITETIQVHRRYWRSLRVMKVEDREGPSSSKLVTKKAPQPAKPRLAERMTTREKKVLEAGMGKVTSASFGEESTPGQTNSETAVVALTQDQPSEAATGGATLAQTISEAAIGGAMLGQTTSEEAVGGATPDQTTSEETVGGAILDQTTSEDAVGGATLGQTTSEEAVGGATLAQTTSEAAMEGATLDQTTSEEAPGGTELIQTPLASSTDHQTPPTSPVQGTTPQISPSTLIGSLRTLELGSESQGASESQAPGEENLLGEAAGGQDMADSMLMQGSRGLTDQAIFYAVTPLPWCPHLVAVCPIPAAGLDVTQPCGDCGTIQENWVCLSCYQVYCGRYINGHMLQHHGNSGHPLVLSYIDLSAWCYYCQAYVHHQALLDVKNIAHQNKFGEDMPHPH
Experimental: (1 picture or pasted object on this page, not shown here)
HDAC activity assays were performed in duplicates at each concentration. The

VEGFR-2 = VEGFR-2 (Homo sapiens, UniProt P35968); assay: In vitro VEGFR-2 tyrosine kinase inhibitory assay (Z'-LYTE, SelectScreen); type: biochemical; details: 10 µM single dose
Chain of VEGFR-2 (P35968 20-1356): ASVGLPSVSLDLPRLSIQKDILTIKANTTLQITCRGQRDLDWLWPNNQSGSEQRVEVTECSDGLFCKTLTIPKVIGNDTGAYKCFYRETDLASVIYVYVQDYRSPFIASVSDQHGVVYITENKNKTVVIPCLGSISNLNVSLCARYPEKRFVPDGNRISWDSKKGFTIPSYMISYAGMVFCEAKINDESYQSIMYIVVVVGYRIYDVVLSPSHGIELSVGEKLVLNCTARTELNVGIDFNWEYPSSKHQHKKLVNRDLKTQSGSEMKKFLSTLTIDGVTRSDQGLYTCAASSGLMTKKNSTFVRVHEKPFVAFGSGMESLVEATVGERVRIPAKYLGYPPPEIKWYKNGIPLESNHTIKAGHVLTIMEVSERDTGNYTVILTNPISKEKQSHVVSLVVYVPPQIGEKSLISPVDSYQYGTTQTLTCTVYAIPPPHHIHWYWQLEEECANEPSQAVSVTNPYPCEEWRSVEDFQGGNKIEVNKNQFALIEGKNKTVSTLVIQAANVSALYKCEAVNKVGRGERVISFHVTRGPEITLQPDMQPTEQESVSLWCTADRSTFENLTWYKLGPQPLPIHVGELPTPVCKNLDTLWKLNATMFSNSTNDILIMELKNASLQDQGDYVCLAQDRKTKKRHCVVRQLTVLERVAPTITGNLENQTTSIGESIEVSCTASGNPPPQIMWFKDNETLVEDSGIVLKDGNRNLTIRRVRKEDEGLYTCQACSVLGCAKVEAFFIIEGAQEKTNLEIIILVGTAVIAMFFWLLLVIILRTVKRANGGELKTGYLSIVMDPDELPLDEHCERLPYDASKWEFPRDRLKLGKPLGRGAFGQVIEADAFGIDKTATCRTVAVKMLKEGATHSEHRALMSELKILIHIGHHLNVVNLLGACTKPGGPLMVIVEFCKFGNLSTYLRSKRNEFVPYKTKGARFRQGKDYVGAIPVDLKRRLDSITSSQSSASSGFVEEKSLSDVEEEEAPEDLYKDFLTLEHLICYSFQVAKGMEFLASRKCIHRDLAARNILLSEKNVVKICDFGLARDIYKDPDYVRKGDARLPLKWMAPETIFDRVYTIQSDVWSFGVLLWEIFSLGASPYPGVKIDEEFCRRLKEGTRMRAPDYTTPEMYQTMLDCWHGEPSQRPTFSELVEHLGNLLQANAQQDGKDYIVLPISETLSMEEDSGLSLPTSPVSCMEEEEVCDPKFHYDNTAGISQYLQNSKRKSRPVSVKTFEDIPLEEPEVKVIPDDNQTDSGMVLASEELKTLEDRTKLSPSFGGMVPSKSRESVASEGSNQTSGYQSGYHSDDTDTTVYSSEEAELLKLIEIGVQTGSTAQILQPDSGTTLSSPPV
In short: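 Z'-LYTE fluorescence coupled-enzyme format, read-out based on differential protease cleavage of phosphorylated vs non-phosphorylated peptide. Compounds screened at 10 µM single dose for % inhibition, then selected ones tested at 0.1 nM–10 µM for IC50 by curve fitting.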

EGFR = EGFR (Homo sapiens, UniProt P00533); assay: In vitro EGFR tyrosine kinase inhibitory assay (Z'-LYTE, SelectScreen); type: biochemical; details: 10 µM single dose
Chain of EGFR (P00533 25-1210): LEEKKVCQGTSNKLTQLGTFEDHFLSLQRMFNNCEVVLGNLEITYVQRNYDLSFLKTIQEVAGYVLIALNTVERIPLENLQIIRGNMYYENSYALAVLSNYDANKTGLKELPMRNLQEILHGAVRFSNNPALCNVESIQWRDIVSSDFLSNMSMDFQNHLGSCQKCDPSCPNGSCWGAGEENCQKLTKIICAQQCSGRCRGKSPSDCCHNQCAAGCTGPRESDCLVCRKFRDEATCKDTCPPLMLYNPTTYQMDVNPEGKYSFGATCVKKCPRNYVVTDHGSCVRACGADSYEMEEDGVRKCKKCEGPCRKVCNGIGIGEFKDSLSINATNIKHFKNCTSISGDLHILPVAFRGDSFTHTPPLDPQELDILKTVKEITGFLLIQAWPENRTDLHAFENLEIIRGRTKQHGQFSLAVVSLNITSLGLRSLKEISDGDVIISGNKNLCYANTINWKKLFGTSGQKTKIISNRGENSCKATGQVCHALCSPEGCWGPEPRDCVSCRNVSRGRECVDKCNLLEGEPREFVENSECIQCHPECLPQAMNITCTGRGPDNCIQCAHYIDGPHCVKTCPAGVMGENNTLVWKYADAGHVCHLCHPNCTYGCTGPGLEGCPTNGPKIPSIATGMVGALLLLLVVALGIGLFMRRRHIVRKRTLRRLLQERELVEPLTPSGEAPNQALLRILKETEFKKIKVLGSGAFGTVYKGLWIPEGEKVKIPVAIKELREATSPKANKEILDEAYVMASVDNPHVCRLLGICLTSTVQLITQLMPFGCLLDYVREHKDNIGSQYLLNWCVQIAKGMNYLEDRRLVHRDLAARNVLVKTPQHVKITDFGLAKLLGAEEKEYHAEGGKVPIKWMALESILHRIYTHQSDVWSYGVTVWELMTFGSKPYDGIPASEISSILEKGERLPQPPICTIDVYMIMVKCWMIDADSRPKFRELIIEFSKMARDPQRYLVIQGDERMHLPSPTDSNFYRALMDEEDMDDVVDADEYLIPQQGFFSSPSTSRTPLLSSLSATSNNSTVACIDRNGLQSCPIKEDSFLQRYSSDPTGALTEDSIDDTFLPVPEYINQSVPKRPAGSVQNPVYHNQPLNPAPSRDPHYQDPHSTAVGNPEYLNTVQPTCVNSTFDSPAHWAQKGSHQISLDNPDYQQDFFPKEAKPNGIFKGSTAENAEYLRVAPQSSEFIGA
Experimental: The target compounds were evaluated for their in vitro inhibitory activities against EGFR, VEGFR-2, and HDAC6. The EGFR and VEGFR-2 inhibitory assays were performed at Thermo Fischer Scientific, Madison, WI, USA (SelectScreenServices@thermofisher.com). The HDAC inhibitory assays were performed at BPS Bioscience, San Diego, CA, USA (www.bpsbioscience.com). Initially, all of the synthesised target compounds were evaluated for their percent inhibitory activity against EGFR, VEGFR-2, and HDACs at 10 µM single dose concentration, in which their mean percent inhibition is summarised in (Figure 5, Tables 1 and [2]). Representative compounds were evaluated for their percent inhibitory activity against EGFR and VEGFR-2 at 6 different concentrations (0.1 nM, 1 nM, 10 nM, 100 nM, 1 µM, 10 µM) to subsequently calculate their IC50 values (Table 3). Additionally, all of the synthesised target compounds were submitted to the National Cancer Institute “NCI” Bethesda, Maryland, USA (www.dtp.nci.nih.gov), to evaluate theirs in vitro antiproliferative activities against NCI 60- cancer cell line panel.
In vitro enzyme inhibition determination for the synthesised compounds was carried out in Thermo Fischer Scientific, Madison, WI, USA (SelectScreenServices@thermofisher.com). The EGFR and VEGFR-2 tyrosine kinase % inhibitory activity at a single-dose concentration of 10 µM was performed initially then representative compounds were evaluated at single-dose concentrations of (0.1 nM, 1 nM, 10 nM, 100 nM, 1 µM) using ZYLTE technology. A fluorescence-based, coupled-enzyme format is employed in the biochemical assay and depends on the sensitivity of proteolytic cleavage to non-phosphorylated and phosphorylated peptides. Then IC50 values for selected compounds were determined by GraphPad Prism at Misr international university.

full NCI 60 cell panel = assay: NCI one-dose screen, whole panel statistics; type: cell-based, human; details: 1.00E-5 Molar
Experimental: All of the synthesised structures were selected and submitted to NCI based on computer modelling techniques and the degree of diversity of structures for the evaluation of their antiproliferative activity. The 20 synthesised compounds were selected with their respective NCI codes [NCS D-820157- NCS D-820176] for the inhibition percent assay at an initial single dose of 10 μM on the full NCI 60 cell panel, where the mean graph of the percent growth for all compounds on the full NCI cell panel is evaluated, compared to the untreated control cells (Supplementary Material). In vitro cell line inhibition % of all synthesised compounds is represented in (Table 1 of Supplementary Material).
All of the synthesised compounds (20) were submitted to NCI and selected for in vitro anticancer assay against a panel of 60 cancer cell lines. The methodology of assay and calculations is as reported.

SMILES: Cc1c(C(=O)NCCC(=O)NO)sc2ncnc(Nc3ccc(NC(=O)Nc4cccc(C(F)(F)F)c4)cc3)c12 [Compound 11c, 1–(4-(6-((3-(hydroxyamino)-3-oxopropyl)carbamoyl)-5-methylthieno[2,3-d]pyrimidin-4-ylamino)phenyl)-3–(3-(trifluoromethyl)phenyl)urea]
- inhibition at 10 µM (HDAC6): 8%
- inhibition at 10 µM (VEGFR-2): 91%
- inhibition at 10 µM (EGFR): 11%
- melting point: 281 °C
- Delta (one dose mean graph) (full NCI 60 cell panel): 23.75%
- Range (one dose mean graph) (full NCI 60 cell panel): 61.62%
- Mean Growth Percent (full NCI 60 cell panel; mean over panel): 102.55%
